The text below walks through data of ChEMBL document CHEMBL4725364, “Discovery of a Copper-Based Mcl-1 Inhibitor as an Effective Antitumor Agent” (J Med Chem, 2020).

pIC50, pKi: −log10 of the molar value. Bounds are passed on as bounds.

In test [1] the target is T1, Induced myeloid leukemia cell differentiation protein Mcl-1 (Homo sapiens, UniProt Q07820). The test is described as follows: Displacement of Flu-BID/FAM-BID from His-tagged Mcl-1 (171 to 327 residues) (unknown origin) expressed in Escherichia coli BL21 (DE3) cells incubated for 3 hrs by fluorescence polarization assay. On the technique in general: Fluorescence polarisation rises when a labelled molecule tumbles more slowly, as on binding a larger partner.

The nature of test [2]: Cytotoxicity against human MOLP8 cells after 24 hrs by MTT assay. The class given is functional, cell-based. The following applies: MOLP-8, 24 h.
The subject of test [3] is L-363. The test is described as follows: Cytotoxicity against human L-363 cells after 24 hrs by MTT assay. The class given is functional, cell-based. The following applies: L-363, 24 h.
In test [4] the test system is MM1.S. Put plainly: Cytotoxicity against human MM1.S cells after 24 hrs by MTT assay. The class given is functional, cell-based. On the technique in general: Formazan colour is commonly taken as a measure of viable cells.
Test [5] deals with T1, Induced myeloid leukemia cell differentiation protein Mcl-1. Put plainly: Inhibition of biotinylated Bim peptide (81 to 106 residues) binding to His-tagged Mcl-1 (171 to 327 residues) (unknown origin) expressed in Escherichia coli BL21 (DE3) cells preincubated for 1 hr followed by biotinylated Bim peptide addition measured after 2 hrs by ELISA. Background: In an ELISA, binding on a coated surface is turned into a signal by an enzyme label.

Test [6] deals with NCI-H929. The test is described as follows: Cytotoxicity against human NCI-H929 cells after 24 hrs by MTT assay. The class given is functional, cell-based. The following applies: NCI-H929, 24 h.
Test [7] relates to LP-1. The test is described as follows: Cytotoxicity against human LP-1 cells after 24 hrs by MTT assay. The test is classed as functional, cell-based. The following applies: LP-1, 24 h.
Test [8] deals with T1, Induced myeloid leukemia cell differentiation protein Mcl-1. The test is described as follows: Inhibition of N-terminal biotin-labeled BIM BH3 peptide (141 to 166 residues) binding to His-tagged Mcl-1 (171 to 327 residues) (unknown origin) expressed in Escherichia coli BL21 (DE3) cells incubated for >=30 mins by […].
The test system of test [9] is K562. The test is described as follows: Cytotoxicity against human K562 cells after 24 hrs by MTT assay. The class given is functional, cell-based. The following applies: K562, 24 h.
Test [10] has as its system KMS-12-PE. Put plainly: Cytotoxicity against human KMS-12-PE cells after 24 hrs by MTT assay. The class given is functional, cell-based.

T1 sequence (Q07820 whole entry, the tested form may be a part): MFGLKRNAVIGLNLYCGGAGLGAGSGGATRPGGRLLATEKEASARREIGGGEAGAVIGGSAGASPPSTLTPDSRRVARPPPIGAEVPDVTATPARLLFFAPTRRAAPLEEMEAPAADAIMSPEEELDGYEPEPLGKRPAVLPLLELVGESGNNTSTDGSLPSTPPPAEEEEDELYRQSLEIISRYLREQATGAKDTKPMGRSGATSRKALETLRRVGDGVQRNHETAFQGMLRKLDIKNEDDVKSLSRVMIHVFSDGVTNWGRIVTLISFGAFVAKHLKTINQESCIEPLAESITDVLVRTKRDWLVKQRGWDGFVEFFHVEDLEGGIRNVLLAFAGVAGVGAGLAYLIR

As a reminder, the pKi is −log10 of the Ki, conventionally taken in molar units. A high value points to a low Ki. As usually defined, the pIC50 is the IC50 on a negative log10 scale, so that one unit is a factor of ten. A lower pIC50 goes with a large IC50. The compound `c1ccc(-c2nccc3c4ccccc4n(Cc4ccc5ccccc5c4)c23)nc1` gave a pKi in [1] of 5.18. In addition, the pIC50 in test [2] is under 4.40; in [3], under 4.40; in test [4], under 4.40; in [5], under 5.00; in [6] it was under 4.40; in test [7] it was under 4.40. The pIC50 was 5.07 in [8], under 4.40 in [9] and under 4.40 in test [10].

Regarding `Fc1ccc(Cn2c3ccccc3c3ccnc(-c4ccccn4)c32)cc1`, the negative logarithm of the Ki (pKi) in test [1] is 5.26. The pIC50 in test [2] is 4.46; in test [3], under 4.40; in test [4], under 4.40; in [5], under 5.00; in [6], 4.60; in [7], 4.47. Besides, the pIC50 is under 5.00 in [8], 4.54 in [9] and under 4.40 in test [10].

In the case of `c1ccc(Cn2c3ccccc3c3ccnc(-c4ccccn4)c32)cc1`, the pKi in test [1] was 5.21. Moreover, the pIC50 was under 4.40 in test [2]; under 4.40 in [3]; under 4.40 in test [4]; under 5.00 in test [5]; 4.43 in test [6]; under 4.40 in [7]. Also, the pIC50 was under 5.00 in test [8], 4.48 in test [9] and under 4.40 in [10].

For `CCn1c2ccccc2c2ccnc(-c3ccccn3)c21`, the pKi in [1] was under 5.00. The pIC50 is under 4.40 in test [2]; under 4.40 in test [3]; under 4.40 in test [4]; under 5.00 in test [5]; under 4.40 in test [6]; under 4.40 in test [7]. Further, the pIC50 in test [8] is under 5.00; in test [9] it was under 4.40; in test [10], under 4.40.

Compound `CCOCCn1c2ccccc2c2ccnc(-c3ccccn3)c21` gave a pKi in test [1] of under 5.00. The pIC50 was under 4.40 in test [2]; under 4.40 in test [3]; under 4.40 in test [4]; under 5.00 in test [5]; under 4.40 in test [6]; under 4.40 in test [7]. In addition, the pIC50 in test [8] was under 5.00; in test [9] it was under 4.40; in [10], under 4.40.

For the compound `Cc1nn(C)c(COc2ccc(N3CCN(S(=O)(=O)N(C)C)CC3)cc2)c1-c1cccc2c(CCCOc3cccc4ccccc34)c(C(=O)O)n(CCN3CCOCC3)c12`, the pKi in [1] was 8.33. Also, the pIC50 was 5.01 in [2]; 4.93 in test [3]; under 4.40 in test [4]; 7.90 in test [5]; 5.07 in test [6]; 4.97 in test [7]. Further, the pIC50 in test [8] is 8.06; in test [9], 4.86; in [10] it was under 4.40.

The compound `c1ccc(OCCn2c3ccccc3c3ccnc(-c4ccccn4)c32)cc1` gave a pKi in [1] of under 5.00. In addition, the pIC50 is under 4.40 in [2]; under 4.40 in test [3]; under 4.40 in test [4]; under 5.00 in [5]; under 4.40 in test [6]; under 4.40 in [7]. The figures for the pIC50 in [8], in test [9] and in test [10] were under 5.00, under 4.40 and under 4.40, respectively.

`c1ccc(COCCn2c3ccccc3c3ccnc(-c4ccccn4)c32)cc1` showed a pKi in test [1] of 5.10. Moreover, the pIC50 in test [2] was under 4.40; in test [3] it was under 4.40; in test [4], under 4.40; in [5], under 5.00; in test [6], under 4.40; in test [7] it was under 4.40. Besides, the values for the pIC50 in test [8], in [9] and in test [10] were under 5.00, under 4.40 and under 4.40, respectively.

The compound `c1ccc(-c2nccc3c2[nH]c2ccccc23)nc1` showed a negative-log Ki (pKi) in test [1] of under 5.00. Also, the pIC50 in [2] is under 4.40; in test [3], under 4.40; in [4] it was under 4.40; in test [5], under 5.00; in [6] it was under 4.40; in [7], under 4.40. For the same compound, the pIC50 in test [8] was under 5.00; in test [9], under 4.40; in [10] it was under 4.40.

As for `c1ccc(-c2nccc3c4ccccc4n(CC4CC4)c23)nc1`, in [1], the pKi is under 5.00. Also, the pIC50 was under 4.40 in [2]; under 4.40 in test [3]; under 4.40 in test [4]; under 5.00 in [5]; under 4.40 in test [6]; under 4.40 in test [7]. In addition, the pIC50 in test [8] was under 5.00; in [9], under 4.40; in [10], under 4.40.

`c1ccc(CCn2c3ccccc3c3ccnc(-c4ccccn4)c32)cc1` showed a pKi in [1] of 5.51. Further, the pIC50 in test [2] is 4.67; in test [3] it was 4.60; in [4], under 4.40; in [5], under 5.00; in [6], 4.84; in test [7], 4.73. Moreover, the pIC50 is 5.05 in test [8], 4.75 in test [9] and under 4.40 in test [10].

As to `Cc1ccc(Cn2c3ccccc3c3ccnc(-c4ccccn4)c32)cc1`, the pKi in test [1] was 5.31. Moreover, the pIC50 is 4.56 in [2]; 4.47 in test [3]; under 4.40 in [4]; under 5.00 in test [5]; 4.75 in [6]; 4.59 in [7]. For the same compound, the pIC50 in [8] was 5.04; in test [9], 4.65; in test [10], under 4.40.
